Reference: patent US8273738B2, “Imidazole derivatives” (priority 2006, dated 2012)
Structures can show the parent of a compound that is named as a salt. Where two headings read alike, the source gives them in different places.

Key:
CB2 receptor = biological target: T1, CB2 receptor (Rattus norvegicus, UniProt Q9QZN9); assay: Cannabinoid CB2 receptor-binding activity ([3H]CP55940 binding experiment), rat spleen membrane specimen
T1 construct: from tissue; host or cells: rat spleen membrane specimen
T1 sequence (Q9QZN9 1-360): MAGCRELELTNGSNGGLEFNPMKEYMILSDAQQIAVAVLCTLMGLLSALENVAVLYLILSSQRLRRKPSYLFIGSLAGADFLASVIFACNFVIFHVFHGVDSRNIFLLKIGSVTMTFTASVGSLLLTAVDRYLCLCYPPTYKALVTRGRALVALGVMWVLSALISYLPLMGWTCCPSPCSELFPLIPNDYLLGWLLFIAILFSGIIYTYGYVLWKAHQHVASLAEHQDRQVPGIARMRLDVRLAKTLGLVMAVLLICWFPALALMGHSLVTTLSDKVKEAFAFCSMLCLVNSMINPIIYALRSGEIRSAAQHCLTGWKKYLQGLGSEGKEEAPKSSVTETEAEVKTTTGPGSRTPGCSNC
Procedure: A test was carried out according to the method of Hillard et al. [The Journal of Pharmacology and Experimental Therapeutics, vol. 289, p. 1427 (1999)]. A rat forebrain membrane specimen and a rat spleen membrane specimen were prepared and used in a binding experiment for a CB1 receptor and a binding experiment for a CB2 receptor, respectively. The membrane specimen (forebrain: final concentration of 0.5 mg of protein/mL, spleen: final concentration of 2 mg of protein/mL) was incubated together with a test compound and [^3H]CP55940 (manufactured by PerkinElmer) ((−)-cis-3-[2-hydroxy-[3,5-^3H]-4-(1,1-dimethylheptyl)phenyl]-trans-4-(3-hydroxypropyl)cyclohexanol)) (final concentration: 0.5 nmol/L) in an assay buffer (50 mmol/L Tris-HCl buffer (pH 7.4), 1 mmol/L EDTA and 3 mmol/L MgCl2) containing 0.1% bovine serum albumin at 25° C. for 1 hour, and the resulting mixture was filtered using a glass filter GF/C (manufactured by Whatman) treated with 1% polyethyleneimine. After the glass filter was washed with the assay buffer containing 0.2% bovine serum albumin, the radioactivity on the glass filter was measured using a liquid scintillation counter (TRI-CARB 2700TR, manufactured by Packard). The binding amount in the presence of 10 μmol/L […] (manufactured by Tocris) ((R)-(+)-[2,3-dihydro-5-methyl-3-(4-morpholinylmethyl)pyrrolo[1,2,3-de]-1,4-benzoxazin-6-yl]-1-naphthalenylmethanone) was considered to be a non-specific binding amount, and a difference between the total binding amount and the non-specific binding amount was considered to be a specific binding amount. The 50% inhibitory concentration (IC50 value) of the test compound against the specific binding was obtained, and the Ki value of the test substance was calculated from the 50% inhibitory concentration and the Kd value of the [^3H]CP55940 binding.

human CB2 receptor = biological target: T2, human CB2 receptor (Homo sapiens, UniProt P34972); assay: GTPγS binding experiment via human CB2 receptor (membrane fraction of CHO-K1 cells); type: biochemical; details: for Emax: read-out: Emax value (maximum effect of CP55940 as 100%)
T2 construct: expressed in transfected cells
T2 sequence (P34972 whole entry): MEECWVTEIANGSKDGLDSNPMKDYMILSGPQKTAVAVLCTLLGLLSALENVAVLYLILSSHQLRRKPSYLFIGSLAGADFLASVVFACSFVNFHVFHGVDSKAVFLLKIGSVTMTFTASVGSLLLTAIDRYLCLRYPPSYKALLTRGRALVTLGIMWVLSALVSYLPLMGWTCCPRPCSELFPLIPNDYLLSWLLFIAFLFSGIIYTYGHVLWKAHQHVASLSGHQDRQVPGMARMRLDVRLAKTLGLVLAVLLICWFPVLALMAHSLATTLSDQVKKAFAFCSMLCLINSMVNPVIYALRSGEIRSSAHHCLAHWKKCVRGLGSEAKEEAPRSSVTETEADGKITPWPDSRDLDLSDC
Procedure: A test was carried out according to the method of Hillard et al. [The Journal of Pharmacology and Experimental Therapeutics, vol. 289, p. 1427 (1999)]. As for a membrane specimen, a membrane fraction was prepared from CHO-K1 cells in which a human CB2 receptor [Nature, vol. 365, pp. 61-65 (1993)] was stably expressed and used. The membrane specimen (final concentration: 40 μg of protein/mL) was incubated together with a test compound and [^35S]GTPγS (manufactured by PerkinElmer) (final concentration: 0.05 nmol/L) in an assay buffer (50 mmol/L Tris-HCl buffer (pH 7.4), 100 mmol/L NaCl, 1 mmol/L EDTA, 3 mmol/L MgCl2, and 0.1% bovine serum albumin) containing 20 μmol/L guanosine 5′-diphosphate (GDP) at 30° C. for 1 hour, and the resulting mixture was filtered using a glass filter GF/B (manufactured by Whatman). After the glass filter was washed with the assay buffer, the radioactivity on the glass filter was measured using a liquid scintillation counter (TRI-CARB 2700TR, manufactured by Packard). The binding amount in the presence of 10 μmol/L GTPγS was considered to be a non-specific binding amount, and a difference between the total binding amount and the non-specific binding amount was considered to be a specific binding amount. The ratio of increase in the specific binding amount in the presence of the test compound to the specific binding amount in the absence of the test compound was considered to be an agonistic activity of the test compound. The concentration of the test compound that produces 50% of the maximum effect (EC50 value) was calculated by performing a nonlinear regression analysis using the concentration-response data. The percentage of the maximum effect of the test compound (Emax value) was calculated by considering the maximum effect of CP55940 (manufactured by Tocris) measured at the same time as 100%.

[1] = test system: rats with chronic constriction nerve injury; assay: Analgesic effect in rats with chronic constriction nerve injury (von Frey filament); type: in vivo, rat; details: oral, dose of 50 mg/kg or less, one hour after administration, von Frey filaments
Description: Rats with chronic constriction nerve injury were produced by partially modifying the method of Mosconi and Kruger et al. (Pain, vol. 64, pp. 37-57 (1996))
Male Crl:CD(SD) rats were used for the experiments. Under pentobarbital anesthesia, the sciatic nerve of the left hind limb of the rat was exfoliated, and the exfoliated region was wrapped with a polyethylene tube (trade name: Intramedic, size: PE-60, manufactured by Becton Dickinson and Company) of 2 mm in length. On days 14 to 21 after the surgery, the rats were placed in an acrylic connected cage with a wire mesh floor (900 mm (length)×210 mm (depth)×140 mm (height)) consisting of 4 cages connected in a row and allowed to acclimate to the environment for at least 20 minutes, and then, the pain was evaluated.
The von Frey filament (trade name: touch test sensory evaluator, Model number: model 58011, manufactured by Muromachi Kikai) was used to evaluate pain, and the results were calculated as a pain threshold. That is, by using a von Frey filament of different stimulus intensity, stimulation was given to the plantar surface of the injured side of rats with chronic constriction nerve injury, and the stimulus intensity to cause paw withdrawal response was obtained. Then, the 50% pain threshold (Paw withdrawal threshold) (g) was calculated by the up down method of Dixon [Annual Review of Pharmacology and Toxicology, vol. 20, pp. 441-462 (1980)].
In the evaluation of the test compound, rats with 50% pain threshold of less than 4 g were used, and the test compound was dissolved in a 0.5% aqueous methyl cellulose solution and orally administered at a dose of 5 mL/kg. One hour after the administration, the pain threshold was measured using von Frey filaments.

[2] = rat spleen membrane, [3H]CP55940 0.5 nmol/L, 25° C., 1 hour, read-out: Ki value against the CB2 receptor

Row | Structure (SMILES) | Ki (CB2 receptor; [2]) [nM] | EC50 (human CB2 receptor) [nM] | Emax (human CB2 receptor) [%] | Ki (CB2 receptor) [nM] | 50% pain threshold (paw withdrawal threshold) [1]
1 | CC(C)(C)c1nc(-c2cccc([N+](=O)[O-])c2)cn1CC1CCCCC1 [Compound 28, 2-tert-Butyl-1-cyclohexylmethyl-4-(3-nitrophenyl)-1H-imidazole] | < 1000 |  |  |  | 
2 | CCN(CC)C(=O)c1cccc(-c2cn(CC3CCCCC3)c(C(C)(C)C)n2)c1 [Compound 32, 3-(2-tert-Butyl-1-cyclohexylmethyl-1H-imidazol-4-yl)-N,N-diethylbenzamide] | < 1000 |  |  |  | 
3 | COc1cccc(-c2cn(CC3CCCCC3)c(CC(C)(C)C)n2)c1 [Compound 38, 1-Cyclohexylmethyl-2-(2,2-dimethylpropyl)-4-(3-methoxyphenyl)-1H-imidazole] |  | < 1000 | > 30 |  | 
4 | CC(C)(C)c1nc(-c2cccc([N+](=O)[O-])c2)cn1CC1CCCCO1 (stereo not drawn) [Compound 42, 2-tert-Butyl-4-(3-nitrophenyl)-1-(tetrahydropyran-2-ylmethyl)-1H-imidazole] |  | < 1000 | > 30 | < 1000 | 
5 | CC(C)C(=O)c1cccc(-c2cn(CC3CCOCC3)c(C(C)(C)C)n2)c1 [Compound 47, 1-{3-[2-tert-Butyl-1-(tetrahydropyran-4-ylmethyl)-1H-imidazol-4-yl]phenyl}-2-methylpropan-1-one hydrochloride] | < 1000 |  |  |  | 
6 | CC(C)(C)c1nc(-c2cccc(C(=O)c3ccccc3)c2)cn1CC1CCOCC1 [Compound 48, {3-[2-tert-Butyl-1-(tetrahydropyran-4-ylmethyl)-1H-imidazol-4-yl]phenyl}phenylmethanone hydrochloride] |  | < 1000 | > 30 | < 1000 | 
7 | CC(=O)c1cccc(-c2cn(CC3CCOCC3)c(C(C)(C)C)n2)c1 [Compound 49, 1-{3-[2-tert-Butyl-1-(tetrahydropyran-4-ylmethyl)-1H-imidazol-4-yl]phenyl}ethanone] | < 1000 | < 1000 | > 30 |  | 
8 | CCNC(=O)c1cccc(-c2cn(CC3CCOCC3)c(C(C)(C)C)n2)c1 [Compound 72, 3-(2-tert-Butyl-1-(tetrahydropyran-4-ylmethyl)-1H-imidazol-4-yl)-N-ethylbenzamide] |  | < 1000 | > 30 | < 1000 | 
9 | CCN(CC)c1cccc(-c2cn(CC3CCOCC3)c(C(C)(C)C)n2)c1 [Compound 77, {3-[2-tert-Butyl-1-(tetrahydropyran-4-ylmethyl)-1H-imidazol-4-yl]phenyl}-diethylamine] |  | < 1000 | > 30 | < 1000 | 
10 | CC(C)(C)c1nc(-c2cccc(C(=O)N(CC(F)(F)F)CC(F)(F)F)c2)cn1CC1CCOCC1 [Compound 82, 3-(2-tert-Butyl-1-(tetrahydropyran-4-ylmethyl)-1H-imidazol-4-yl)-N,N-bis(2,2,2-trifluoroethyl)benzamide] |  | < 1000 | > 30 | < 1000 | 
11 | CC(C)(C)c1nc(-c2cncc(Br)c2)cn1CC1CCOCC1 [Compound 84, 3-Bromo-5-[2-tert-Butyl-1-(tetrahydropyran-4-ylmethyl)-1H-imidazol-4-yl]pyridine] | < 1000 |  |  |  | 
12 | CC(C)(C)c1nc(C=CC(=O)N(CC(F)(F)F)CC(F)(F)F)cn1CC1CCOCC1 [Compound 90, 3-(2-tert-Butyl-1-(tetrahydropyran-4-ylmethyl)-1H-imidazol-4-yl)-N,N-bis(2,2,2-trifluoroethyl)acrylamide] | < 1000 |  |  |  | 
13 | CCCN(CCC)C(=O)C=Cc1cn(CC2CCOCC2)c(C(C)(C)C)n1 [Compound 92, 3-(2-tert-Butyl-1-(tetrahydropyran-4-ylmethyl)-1H-imidazol-4-yl)-N,N-dipropylacrylamide] | < 1000 |  |  |  | 
14 | CN(C)C(=O)c1cc(-c2cn(CC3CCOCC3)c(C(C)(C)C)n2)cs1 [Compound 133, 4-[2-tert-Butyl-1-(tetrahydropyran-4-ylmethyl)-1H-imidazol-4-yl]thiophene-2-carboxylic acid dimethylamide] | < 1000 |  |  |  | significantly increased the pain threshold
15 | CN(C)C(=O)c1cccc(-c2cn(CC3(F)CCOCC3)c(C(C)(C)C)n2)c1 [Compound 187, 3-[2-tert-Butyl-1-(4-fluorotetrahydropyran-4-ylmethyl)-1H-imidazol-4-yl]-N,N-dimethylbenzamide] | < 1000 |  |  |  | significantly increased the pain threshold
16 | CN(C)C(=O)c1cc(-c2cn(CC3(F)CCOCC3)c(C(C)(C)C)n2)cs1 [Compound 188, 4-[2-tert-Butyl-1-(4-fluorotetrahydropyran-4-ylmethyl)-1H-imidazol-4-yl]-N,N-dimethylthiophene-2-carboxamide] | < 1000 |  |  |  | 
17 | CN(CC#N)C(=O)c1cncc(-c2cn(CC3CCOCC3)c(C(C)(C)C)n2)n1 [Compound 207, 6-[2-tert-Butyl-1-(tetrahydropyran-4-ylmethyl)-1H-imidazol-4-yl]-N-cyanomethyl-N-methylpyrazine-2-carboxamide] | < 1000 |  |  |  | significantly increased the pain threshold
18 | CCOc1ccc(Cc2nc(-c3cccc(OC)c3)cn2CC2CCOCC2)cc1 [Compound o, 2-(4-Ethoxybenzyl)-4-(3-methoxyphenyl)-1-(tetrahydro-pyran-4-ylmethyl)-1H-imidazole] | < 1000 |  |  |  | 
19 | CCOc1ccc(Cc2nc(-c3cccc(C#N)c3)cn2CC2CCOCC2)cc1 [Compound p, 3-[2-(4-Ethoxybenzyl)-1-(tetrahydropyran-4-ylmethyl)-1H-imidazol-4-yl]benzonitrile] | < 1000 |  |  |  | 
20 | CCOc1ccc(Cc2nc(-c3cccc(C(=O)N(CC)CC)c3)cn2CC2CCOCC2)cc1 [Compound q, 3-[2-(4-Ethoxybenzyl)-1-(tetrahydropyran-4-ylmethyl)-1H-imidazol-4-yl]-N,N-diethylbenzamide] | < 1000 |  |  |  | 
